Values quoted from earlier work, collected in patent US20200038318A1, “ORAL MEDICATION FORMULATIONS” (GRUNBIOTICS PTY LTD, priority 2016, published 2020).

Tested on: patients with major depressive disorder who have a partial response or no response to SSRIs
Details: 15 mg/day

## CN1c2c([nH]c(N)nc2=O)NC[C@@H]1CNc1ccc(C(=O)N[C@@H](CCC(=O)O)C(=O)O)cc1 [L-methylfolate]
  Efficacy, safety and tolerability as adjunctive treatment: effective safe and relatively well tolerated
